Target: T1, MPD (methyl parathion hydrolase) (Stenotrophomonas sp. YC-1, UniProt Q0PWQ4)
T1 construct: full ORF (primers from […] to stop; locus Chr1:1174990-1175985, 996 bp), pET28a EcoRI/HindIII, His tag, E. coli BL21(DE3); 331 residues per monomer
Assay: UPLC of residual DDVP, Michaelis-Menten fit
Type: biochemical
Settings: 37 °C, 1 min; DDVP 0.01 to 0.04 mM; enzyme refolded from urea

T1 sequence (Q0PWQ4 entry or part of it): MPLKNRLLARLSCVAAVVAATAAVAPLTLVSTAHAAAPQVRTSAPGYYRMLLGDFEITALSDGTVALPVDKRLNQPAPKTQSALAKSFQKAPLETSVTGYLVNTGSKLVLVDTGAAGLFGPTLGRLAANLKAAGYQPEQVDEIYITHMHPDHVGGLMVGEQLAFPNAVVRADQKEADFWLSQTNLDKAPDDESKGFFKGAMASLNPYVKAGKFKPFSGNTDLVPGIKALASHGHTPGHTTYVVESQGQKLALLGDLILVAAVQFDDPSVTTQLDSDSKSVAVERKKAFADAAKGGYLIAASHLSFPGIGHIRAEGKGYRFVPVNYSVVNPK

COP(=O)(OC)OC=C(Cl)Cl [DDVP, Dichlorvos]
Km: 99 µM

Source: paper PMC12524942, “Efficient Hydrolysis of Dichlorvos in Water by Stenotrophomonas acidaminiphila G1 and Methyl Parathion Hydrolase” (International Journal of Molecular Sciences, 2025)
